Key:
cucumber downy mildew = assay: Fungicidal activity on potted plants, cucumber downy mildew; format: in vivo; conditions: for control(%) fungicidal activity against cucumber downy mildew: 50 ppm; for control against cucumber downy mildew: 200 ppm, spray on potted plant
cucumber grey mold = assay: Fungicidal activity on potted plants, cucumber grey mold; format: in vivo; conditions: 200 ppm
culex mosquitoes = assay: Insecticidal/acaricidal activity, culex mosquitoes; format: in vivo; conditions: 10 ppm
grape downy mildew = assay: Fungicidal activity on potted plants, grape downy mildew; format: in vivo; conditions: 200 ppm
wheat leaf rust = assay: Fungicidal activity on potted plants, wheat leaf rust; format: in vivo; conditions: 200 ppm
wheat leaf blotch = assay: Fungicidal activity on potted plants, wheat leaf blotch; format: in vivo; conditions: 200 ppm
tomato late blight = format: in vivo; conditions: 200 ppm
Mexican lady beetle = assay: Insecticidal/acaricidal activity, Mexican lady beetle; format: in vivo; conditions: 300 ppm
Procedure: Numerous insect larvae were put into containers then were fed with treated corn leaves. Potter's spraying tower was used as the sprayer and spraying volume was 1 mL. The spraying pressure was 13.5 lb/in^2.

two-spotted spider mite = assay: Insecticidal/acaricidal activity, two-spotted spider mite; format: in vivo; conditions: 300 ppm
[1] = test system: tomato early stage blight; assay: Fungicidal activity on potted plants, tomato early stage blight; format: in vivo; conditions: 200 ppm
wheat powdery mildew = assay: Fungicidal activity on potted plants, wheat powdery mildew; format: in vivo; conditions: 200 ppm
[2] = Biological evaluation of compound JP51 after synthesis; conditions: after synthesis and the biological evaluation
Text: Biological active data of the compound in JP04-182461 have not been disclosed.

| Compound | control(%) fungicidal activity against cucumber downy mildew (cucumber downy mildew) [%] | control against cucumber downy mildew (cucumber downy mildew) [%] | other results |
| --- | --- | --- | --- |
| COC=C(C(=O)OC)c1ccccc1COc1ccc2ccc(=O)oc2c1 [Compound 1] | 100 | 100 | – |
| COC=C(C(=O)OC)c1ccccc1COc1ccc2c(C)cc(=O)oc2c1 [Compound 2] | 100 | 100 | control against cucumber grey mold (cucumber grey mold): 100%; control of culex mosquitoes (culex mosquitoes): 100% |
| COC=C(C(=O)OC)c1ccccc1COc1ccc2c(-c3ccccc3)cc(=O)oc2c1C [Compound 4] | – | 100 | – |
| COC=C(C(=O)OC)c1ccccc1COc1ccc2c(C)c(C)c(=O)oc2c1 [Compound 5] | 100 | 100 | control of culex mosquitoes (culex mosquitoes): 100% |
| COC=C(C(=O)OC)c1ccccc1COc1ccc2c(C)c(C)c(=O)oc2c1C [Compound 6] | 100 | 100 | control against cucumber grey mold (cucumber grey mold): 100%; control against grape downy mildew (grape downy mildew): 100%; control against wheat leaf rust (wheat leaf rust): 100%; control against wheat leaf blotch (wheat leaf blotch): > 90%; control against tomato late blight (tomato late blight): > 95%; control of culex mosquitoes (culex mosquitoes): 100% |
| COC=C(C(=O)OC)c1ccccc1COc1ccc2c(C(F)(F)F)cc(=O)oc2c1 [Compound 7] | – | – | control against grape downy mildew (grape downy mildew): 100%; control of Mexican lady beetle (Mexican lady beetle): 100%; control of two-spotted spider mite (two-spotted spider mite): > 50% |
| COC=C(C(=O)OC)c1ccccc1COc1cc2oc(=O)cc(C)c2cc1C(C)=NOC [Compound 9] | – | – | control of Mexican lady beetle (Mexican lady beetle): 100% |
| COC=C(C(=O)OC)c1ccccc1COc1cc2oc(=O)cc(C)c2cc1C(C)=O [Compound 10] | – | – | control against grape downy mildew (grape downy mildew): 100%; control against tomato late blight (tomato late blight): > 75%; control of Mexican lady beetle (Mexican lady beetle): 100% |
| COC=C(C(=O)OC)c1ccccc1COc1ccc2c(C)cc(=O)oc2c1C(C)=O [Compound 11] | – | – | control against tomato early stage blight [1]: > 75% |
| COC=C(C(=O)OC)c1ccccc1COc1ccc2c(C)c(Cl)c(=O)oc2c1 [Compound 12] | 100 | 100 | – |
| CCc1c(C)c2ccc(OCc3ccccc3C(=COC)C(=O)OC)cc2oc1=O [Compound 18] | – | 100 | control against cucumber grey mold (cucumber grey mold): 100% |
| COC=C(C(=O)OC)c1ccccc1COc1ccc2c(COC)cc(=O)oc2c1 [Compound 19] | – | 100 | – |
| COC=C(C(=O)OC)c1ccccc1COc1ccc2c(C)c(Cl)c(=O)oc2c1C [Compound 25] | – | 100 | – |
| COC=C(C(=O)OC)c1ccccc1COc1ccc2c(C(C)C)cc(=O)oc2c1 [Compound 26] | 100 | 100 | – |
| CCc1cc(=O)oc2cc(OCc3ccccc3C(=COC)C(=O)OC)ccc12 [Compound 33] | – | 100 | – |
| CCCc1cc(=O)oc2cc(OCc3ccccc3C(=COC)C(=O)OC)ccc12 [Compound 34] | – | 100 | – |
| CCCc1cc(=O)oc2c(C)c(OCc3ccccc3C(=COC)C(=O)OC)ccc12 [Compound 35] | – | 100 | – |

| Compound | control(%) fungicidal activity against cucumber downy mildew (cucumber downy mildew) [%] | control against cucumber downy mildew (cucumber downy mildew) [%] | other results |
| --- | --- | --- | --- |
| CCCc1c(C)c(=O)oc2cc(OCc3ccccc3C(=COC)C(=O)OC)ccc12 [Compound 37] | 100 | 100 | – |
| COC=C(C(=O)OC)c1ccccc1COc1ccc2c(C)c(F)c(=O)oc2c1 [Compound 50] | – | 100 | control against cucumber grey mold (cucumber grey mold): 100% |
| COC=C(C(=O)OC)c1ccccc1COc1ccc2c(-c3ccccc3)cc(=O)oc2c1 [Compound 52] | 100 | 100 | – |
| COC=C(C(=O)OC)c1ccccc1COc1ccc2c(-c3ccc(OC)c(OC)c3)cc(=O)oc2c1 [Compound 58] | – | 100 | control against cucumber grey mold (cucumber grey mold): 100% |
| COC=C(C(=O)OC)c1ccccc1COc1ccc2c(C)c(Cc3ccccc3)c(=O)oc2c1C [Compound 69] | – | 100 | – |
| CON=C(C(=O)OC)c1ccccc1COc1ccc2c(C)c(Cl)c(=O)oc2c1 [Compound 100] | – | – | control against cucumber grey mold (cucumber grey mold): 100% |
| CON=C(C(=O)OC)c1ccccc1COc1ccc2c(C)c(Cl)c(=O)oc2c1C [Compound 109] | – | 100 | – |
| CON=C(C(=O)OC)c1ccccc1COc1cc2oc(=O)cc(-c3cccc(C(F)(F)F)c3)c2cc1C(C)=O [Compound 141] | 100 | – | – |
| CCCCc1c(C)c2ccc(OCc3ccccc3C(=COC)C(=O)OC)cc2oc1=O [Compound 402] | 100 | 100 | control against cucumber grey mold (cucumber grey mold): 100%; control against wheat powdery mildew (wheat powdery mildew): 100% |
| CCCCCCc1c(C)c2ccc(OCc3ccccc3C(=COC)C(=O)OC)cc2oc1=O [Compound 405] | 100 | 100 | – |
| CCCc1c(CCC)c2ccc(OCc3ccccc3C(=COC)C(=O)OC)cc2oc1=O [Compound 409] | 100 | 100 | – |
| CCCc1c(Cl)c(=O)oc2cc(OCc3ccccc3C(=NOC)C(=O)OC)ccc12 [Compound 410] | – | 100 | – |
| CCCc1c(C)c2ccc(OCc3ccccc3C(=NOC)C(=O)OC)cc2oc1=O [Compound 412] | – | – | control against wheat powdery mildew (wheat powdery mildew): 100% |
| CCCCc1c(C)c2ccc(OCc3ccccc3C(=NOC)C(=O)OC)cc2oc1=O [Compound 413] | – | 100 | control against wheat powdery mildew (wheat powdery mildew): 100% |
| CCCCCCc1c(C)c2ccc(OCc3ccccc3C(=NOC)C(=O)OC)cc2oc1=O [Compound 414] | – | 100 | – |
| CNC(=O)/C(=N/OC)c1ccccc1COc1ccc2ccc(=O)oc2c1 [JP51, reference compound] | 20 | – | biological activity (general statement) [2]: low biological active |

From patent publication US7642364B2, “Benzopyrone compounds, preparation method and use thereof” (Shenyang Research Institute of Chemical Industry, priority 2003, dated 2010)
